Laboratory results taken from article PMC7468108 (Communications Biology, 2020).

Legend:
[1] = target: T1, pre-formed fibrils of hIAPP (Homo sapiens, UniProt P10997); test: CD spectroscopy of pre-formed hIAPP fibrils with the tested molecules; conditions: hIAPP : molecule (1:5)
T1 construct: hIAPP is a 37-amino acid neuroendocrine peptide hormone; purchased Peptide 2.0 (USA)
T1 sequence (P10997 34-70 limits assumed): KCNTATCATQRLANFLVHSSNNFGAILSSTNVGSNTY
Procedure: For efficient treatment of proteinopathies it may be advantageous to disassemble amyloid aggregates/fibrils which are usually already present at the time of diagnosis[75]–[77]. […] Then, various doses of the hybrid molecules were added to the pre-formed fibrils and the mixtures were incubated for additional 10 h. The process of disaggregation was monitored by ThT-binding assay, CD spectroscopy, TEM and Congo red staining (Fig. 5).
The blank was subtracted from the acquired CD spectra. For the CD study in the presence of the tryptophan-galacosylamine molecules, the spectra of hybrid molecules were also recorded separately and subtracted from the respective sample spectra. The normalized data were plotted using Origin pro 2015 software.

[2] = test system: HEK-293 cells exposed to pre-formed hIAPP fibrils; test: XTT assay, reduction of hIAPP-induced cytotoxicity in HEK-293; assay type: cell-based; conditions: Homo sapiens
Procedure: The peptide assemblies were then incubated for further 24 h with SH-SY5Y or HEK-293 cells and cell viability was monitored by XTT assay (Fig. 9). […] The mixtures were then independently applied to the respective cells for 24 h, and cell viability was further measured by XTT assay (Fig. 10a).
The SH-SY5Y and HEK-293 cell lines (2 × 10^5 cells/mL) were cultured in 96-well tissue microplates (100 µL/well) and allowed to adhere overnight at 37 °C. The conjugate molecules were dissolved in DMEM:nutrient mixture F12 (Ham’s) (1:1) (Biological Industries, Israel) at different concentrations. The negative control was prepared as medium without hybrid molecules and treated in the same manner. 100 µL of medium with or without hybrid molecules were added to each well in triplicate. Following incubation for 24 h at 37 °C, cell viability was evaluated using the 2,3-bis(2-methoxy-4-nitro-5-sulfophenyl)-2H-tetrazolium-5-carboxanilide (XTT) cell proliferation assay kit (Biological Industries, Israel) according to the manufacturer’s instructions. Briefly, 100 µL of activation reagent was added to 5 mL of XTT reagent, followed by the addition of 50 µL of activated-XTT solution to each well. After 2 h incubation at 37 °C, color intensity was measured using an ELISA microplate reader at 450 nm and 630 nm. Results are presented as mean and mean standard error. Each experiment was repeated minimum three times.
For the quantitative data derived from ThT and XTT assays, statistical significance, expressed as p-value, was determined using Student’s t-test calculation applied at the end of the experiments, setting tails to 2 (tailed distribution) and type to 2 (samples equal variance), according to reported methods. From the XTT viability assays, EC50 and Emax values were determined from the dose-response curves of each tested molecule using non-linear least-square data fitting, according to literature.

Question: What does the source list for `NC(Cc1c[nH]c2ccccc12)C(=O)NC(Cc1c[nH]c2ccccc12)C(=O)O` (stereo not drawn) [WW]?
Answer: Normalized CD spectra ([1]; wavelength 190.00): -1159830.00; Normalized CD spectra ([1]; wavelength 190.50): -799592.59; Normalized CD spectra ([1]; wavelength 191.00): -466296.57; Normalized CD spectra ([1]; wavelength 191.50): -159943.13; Normalized CD spectra ([1]; wavelength 192.00): 119467.75; Normalized CD spectra ([1]; wavelength 192.50): 371936.05; Normalized CD spectra ([1]; wavelength 193.00): 597461.77; Normalized CD spectra ([1]; wavelength 193.50): 796044.93; Normalized CD spectra ([1]; wavelength 194.00): 967685.51; Normalized CD spectra ([1]; wavelength 194.50): 1212380.23; Normalized CD spectra ([1]; wavelength 195.00): 1290140.24; Normalized CD spectra ([1]; wavelength 195.50): 1323180.24; Normalized CD spectra ([1]; wavelength 196.00): 1393960.26; Normalized CD spectra ([1]; wavelength 196.50): 1424490.23; Normalized CD spectra ([1]; wavelength 197.00): 1413320.40; Normalized CD spectra ([1]; wavelength 197.50): 1387150.18; Normalized CD spectra ([1]; wavelength 198.00): 1299100.11; Normalized CD spectra ([1]; wavelength 198.50): 1256630.40; Normalized CD spectra ([1]; wavelength 199.00): 1187490.08; Normalized CD spectra ([1]; wavelength 199.50): 1142090.27; Normalized CD spectra ([1]; wavelength 200.00): 1101290.79; Normalized CD spectra ([1]; wavelength 200.50): 1045740.12; Normalized CD spectra ([1]; wavelength 201.00): 960554.59; Normalized CD spectra ([1]; wavelength 201.50): 884170.56; Normalized CD spectra ([1]; wavelength 202.00): 793224.29; Normalized CD spectra ([1]; wavelength 202.50): 710397.29; Normalized CD spectra ([1]; wavelength 203.00): 623023.93; Normalized CD spectra ([1]; wavelength 203.50): 548091.19; Normalized CD spectra ([1]; wavelength 204.00): 460178.98; Normalized CD spectra ([1]; wavelength 204.50): 362812.96; Normalized CD spectra ([1]; wavelength 205.00): 267913.28; Normalized CD spectra ([1]; wavelength 205.50): 183033.71; Normalized CD spectra ([1]; wavelength 206.00): 99125.43; Normalized CD spectra ([1]; wavelength 206.50): 21202.95; Normalized CD spectra ([1]; wavelength 207.00): -58441.14; Normalized CD spectra ([1]; wavelength 207.50): -134432.91; Normalized CD spectra ([1]; wavelength 208.00): -202839.97; Normalized CD spectra ([1]; wavelength 208.50): -260187.32; Normalized CD spectra ([1]; wavelength 209.00): -323573.72; Normalized CD spectra ([1]; wavelength 209.50): -382447.61; Normalized CD spectra ([1]; wavelength 210.00): -437399.79; Normalized CD spectra ([1]; wavelength 210.50): -489520.86; Normalized CD spectra ([1]; wavelength 211.00): -539599.27; Normalized CD spectra ([1]; wavelength 211.50): -576249.85; Normalized CD spectra ([1]; wavelength 212.00): -613623.93; Normalized CD spectra ([1]; wavelength 212.50): -639995.46; Normalized CD spectra ([1]; wavelength 213.00): -663323.35; Normalized CD spectra ([1]; wavelength 232.00): -332238.92; Normalized CD spectra ([1]; wavelength 232.50): -324045.26; Normalized CD spectra ([1]; wavelength 233.00): -310464.00; Normalized CD spectra ([1]; wavelength 233.50): -306656.69; Normalized CD spectra ([1]; wavelength 234.00): -298160.53; Normalized CD spectra ([1]; wavelength 234.50): -288025.21; Normalized CD spectra ([1]; wavelength 235.00): -277617.45; Normalized CD spectra ([1]; wavelength 235.50): -265647.30; Normalized CD spectra ([1]; wavelength 236.00): -250898.81; Normalized CD spectra ([1]; wavelength 236.50): -242222.13; Normalized CD spectra ([1]; wavelength 237.00): -231613.39; Normalized CD spectra ([1]; wavelength 237.50): -223355.72; Normalized CD spectra ([1]; wavelength 238.00): -218172.86; Normalized CD spectra ([1]; wavelength 238.50): -206535.49; Normalized CD spectra ([1]; wavelength 239.00): -191737.01; Normalized CD spectra ([1]; wavelength 239.50): -180445.52; Normalized CD spectra ([1]; wavelength 240.00): -179664.78; Normalized CD spectra ([1]; wavelength 240.50): -172296.10; Normalized CD spectra ([1]; wavelength 241.00): -162102.32; Normalized CD spectra ([1]; wavelength 241.50): -148455.67; Normalized CD spectra ([1]; wavelength 242.00): -149233.62; Normalized CD spectra ([1]; wavelength 242.50): -139443.53; Normalized CD spectra ([1]; wavelength 243.00): -134411.20; Normalized CD spectra ([1]; wavelength 243.50): -135270.09; Normalized CD spectra ([1]; wavelength 244.00): -127740.28; Normalized CD spectra ([1]; wavelength 244.50): -125334.77; Normalized CD spectra ([1]; wavelength 245.00): -119297.62; Normalized CD spectra ([1]; wavelength 245.50): -115863.12; Normalized CD spectra ([1]; wavelength 246.00): -113285.78; Normalized CD spectra ([1]; wavelength 246.50): -114529.09; Normalized CD spectra ([1]; wavelength 247.00): -113972.59; Normalized CD spectra ([1]; wavelength 247.50): -115521.93; Normalized CD spectra ([1]; wavelength 248.00): -110033.91; Normalized CD spectra ([1]; wavelength 248.50): -107626.80; Normalized CD spectra ([1]; wavelength 249.00): -94087.61; Normalized CD spectra ([1]; wavelength 249.50): -91943.44; Normalized CD spectra ([1]; wavelength 250.00): -91987.89; Normalized CD spectra ([1]; wavelength 250.50): -83982.51; Normalized CD spectra ([1]; wavelength 251.00): -78786.13; Normalized CD spectra ([1]; wavelength 251.50): -77492.66; Normalized CD spectra ([1]; wavelength 252.00): -81506.91; Normalized CD spectra ([1]; wavelength 252.50): -74477.64; Normalized CD spectra ([1]; wavelength 253.00): -78503.70; Normalized CD spectra ([1]; wavelength 253.50): -82822.05; Normalized CD spectra ([1]; wavelength 254.00): -81558.46; Normalized CD spectra ([1]; wavelength 254.50): -84392.86; Normalized CD spectra ([1]; wavelength 255.00): -84114.71; Normalized CD spectra ([1]; wavelength 255.50): -85462.25; Normalized CD spectra ([1]; wavelength 256.00): -87106.95; Normalized CD spectra ([1]; wavelength 256.50): -89048.81; Normalized CD spectra ([1]; wavelength 257.00): -91287.84; Normalized CD spectra ([1]; wavelength 257.50): -93824.03; Normalized CD spectra ([1]; wavelength 258.00): -96657.38; viability at 10 µM ([2]; HEK293, hIAPP (10 µM) : molecule 1:1, HEK-293 cells, normalized XTT data): 55.2%; viability at 50 µM ([2]; HEK293, hIAPP (10 µM) : molecule 1:5, HEK-293 cells, normalized XTT data): 57.7%; viability at 200 µM ([2]; HEK293, hIAPP (10 µM) : molecule 1:20, HEK-293 cells, normalized XTT data): 58.5%; viability at 2 µM ([2]; HEK293, hIAPP (10 µM) : molecule 5:1, HEK-293 cells, normalized XTT data): 55.6%; EC50 ([2]; HEK293, reduction of cytotoxicity of pre-formed hIAPP fibrils 10 µM, HEK-293): 10 µM
